Laboratory results published in ChEMBL document CHEMBL1201862, “PubChem BioAssay data set” (2004).
Activity calls are given as the source filed them.

What was measured:
[1] = target: T1, High affinity choline transporter 1 (Homo sapiens, UniProt Q9GZV3); experiment: human choline transporter blockers, potency – cell-based, 5-point CRC, membrane potential dye, dose response (AID 504840); assay type: functional
T1 sequence (Q9GZV3 whole entry): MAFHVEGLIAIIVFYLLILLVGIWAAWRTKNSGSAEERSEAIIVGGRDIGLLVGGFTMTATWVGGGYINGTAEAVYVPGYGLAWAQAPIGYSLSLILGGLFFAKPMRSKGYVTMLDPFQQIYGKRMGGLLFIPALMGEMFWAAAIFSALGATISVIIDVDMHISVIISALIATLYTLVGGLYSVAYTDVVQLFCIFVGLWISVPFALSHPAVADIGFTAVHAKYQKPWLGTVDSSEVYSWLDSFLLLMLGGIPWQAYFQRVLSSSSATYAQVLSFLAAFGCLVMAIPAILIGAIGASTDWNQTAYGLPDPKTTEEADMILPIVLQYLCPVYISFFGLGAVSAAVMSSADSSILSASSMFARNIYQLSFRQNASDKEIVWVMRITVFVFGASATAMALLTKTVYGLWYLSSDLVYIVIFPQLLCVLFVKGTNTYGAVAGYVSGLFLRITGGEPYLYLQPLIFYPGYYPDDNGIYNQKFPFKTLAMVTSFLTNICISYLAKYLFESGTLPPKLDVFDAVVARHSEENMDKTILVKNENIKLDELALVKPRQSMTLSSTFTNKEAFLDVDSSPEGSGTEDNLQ

Nonstructural protein 1 = Nonstructural protein 1 (Influenza A virus, UniProt Q194T2); assay type: functional, Influenza A virus (A/California/07/2009(H1N1))
Chain of Nonstructural protein 1 (Q194T2 whole entry): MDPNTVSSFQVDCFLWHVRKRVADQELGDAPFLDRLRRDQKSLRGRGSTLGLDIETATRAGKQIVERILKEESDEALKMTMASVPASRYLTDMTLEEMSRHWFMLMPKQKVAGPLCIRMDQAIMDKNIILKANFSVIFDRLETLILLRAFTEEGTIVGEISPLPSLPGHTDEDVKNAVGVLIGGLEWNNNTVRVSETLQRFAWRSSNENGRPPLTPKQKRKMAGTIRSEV

[2] = target: T2, Alkaline phosphatase, tissue-nonspecific isozyme (Homo sapiens, UniProt P05186); experiment: TNAP enzyme inhibition by screening hits, dose response, selectivity assay for mouse IAP inhibitor project, biochemical, human TNAP, uHTS hits (AID 488906); assay type: functional
T2 sequence (P05186 whole entry): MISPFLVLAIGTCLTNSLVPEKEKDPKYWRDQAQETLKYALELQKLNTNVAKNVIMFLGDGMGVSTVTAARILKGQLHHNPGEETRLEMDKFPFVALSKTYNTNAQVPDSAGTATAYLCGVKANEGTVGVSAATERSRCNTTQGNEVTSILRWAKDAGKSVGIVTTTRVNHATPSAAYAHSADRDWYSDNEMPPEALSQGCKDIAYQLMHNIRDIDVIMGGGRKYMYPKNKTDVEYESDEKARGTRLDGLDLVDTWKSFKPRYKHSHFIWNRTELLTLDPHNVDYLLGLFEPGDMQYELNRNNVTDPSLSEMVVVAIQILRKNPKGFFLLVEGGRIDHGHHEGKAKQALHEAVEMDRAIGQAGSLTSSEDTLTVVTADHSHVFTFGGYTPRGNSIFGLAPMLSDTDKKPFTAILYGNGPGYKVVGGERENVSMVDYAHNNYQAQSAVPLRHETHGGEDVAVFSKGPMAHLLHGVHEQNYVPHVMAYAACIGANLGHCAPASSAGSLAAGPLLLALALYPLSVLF

[3] = target: Intestinal-type alkaline phosphatase (Mus musculus, UniProt P24822); experiment: PubChem AID 488785; assay type: functional
Chain of Intestinal-type alkaline phosphatase (Mus musculus, UniProt P24822) (P24822 whole entry): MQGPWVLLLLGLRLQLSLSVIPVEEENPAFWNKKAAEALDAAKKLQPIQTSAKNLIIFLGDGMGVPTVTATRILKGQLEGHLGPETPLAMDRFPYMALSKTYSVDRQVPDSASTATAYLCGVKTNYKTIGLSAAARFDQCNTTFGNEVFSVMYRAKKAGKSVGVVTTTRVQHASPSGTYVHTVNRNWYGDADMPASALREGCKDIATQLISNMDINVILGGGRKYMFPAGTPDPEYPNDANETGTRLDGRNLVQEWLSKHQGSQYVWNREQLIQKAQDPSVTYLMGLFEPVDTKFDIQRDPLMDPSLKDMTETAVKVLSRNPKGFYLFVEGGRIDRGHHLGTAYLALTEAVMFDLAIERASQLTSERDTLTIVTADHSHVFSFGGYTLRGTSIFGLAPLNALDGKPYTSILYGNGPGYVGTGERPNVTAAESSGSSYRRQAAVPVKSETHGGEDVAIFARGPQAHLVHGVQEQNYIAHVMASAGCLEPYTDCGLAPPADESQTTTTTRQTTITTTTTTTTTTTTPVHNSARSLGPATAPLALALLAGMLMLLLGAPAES

[4] = target: Intestinal-type alkaline phosphatase (Homo sapiens, UniProt P09923); experiment: inhibition of human intestinal alkaline phosphatase – biochemical, dose response (AID 488876); assay type: functional
Chain of Intestinal-type alkaline phosphatase (Homo sapiens, UniProt P09923) (P09923 whole entry, the tested form may be a part): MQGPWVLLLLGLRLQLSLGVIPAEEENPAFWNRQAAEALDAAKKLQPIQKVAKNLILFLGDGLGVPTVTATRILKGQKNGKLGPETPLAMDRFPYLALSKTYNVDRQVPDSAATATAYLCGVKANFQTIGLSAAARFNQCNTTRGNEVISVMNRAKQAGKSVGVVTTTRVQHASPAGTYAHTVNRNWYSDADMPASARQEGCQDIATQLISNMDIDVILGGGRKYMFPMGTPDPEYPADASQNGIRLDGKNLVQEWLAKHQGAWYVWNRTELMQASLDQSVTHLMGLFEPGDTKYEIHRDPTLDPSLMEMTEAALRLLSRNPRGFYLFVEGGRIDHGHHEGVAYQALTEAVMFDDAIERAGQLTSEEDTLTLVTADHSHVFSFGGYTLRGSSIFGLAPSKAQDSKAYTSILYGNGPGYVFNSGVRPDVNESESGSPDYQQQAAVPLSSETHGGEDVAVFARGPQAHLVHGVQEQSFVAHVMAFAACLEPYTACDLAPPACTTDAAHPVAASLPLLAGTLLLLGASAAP

[5] = target: T3, Nucleotide-binding oligomerization domain-containing protein 1 (Homo sapiens, UniProt Q9Y239); experiment: blockers of NOD1 pathway activity – revised, SAR follow-up (AID 2333); assay type: functional
T3 sequence (Q9Y239 whole entry): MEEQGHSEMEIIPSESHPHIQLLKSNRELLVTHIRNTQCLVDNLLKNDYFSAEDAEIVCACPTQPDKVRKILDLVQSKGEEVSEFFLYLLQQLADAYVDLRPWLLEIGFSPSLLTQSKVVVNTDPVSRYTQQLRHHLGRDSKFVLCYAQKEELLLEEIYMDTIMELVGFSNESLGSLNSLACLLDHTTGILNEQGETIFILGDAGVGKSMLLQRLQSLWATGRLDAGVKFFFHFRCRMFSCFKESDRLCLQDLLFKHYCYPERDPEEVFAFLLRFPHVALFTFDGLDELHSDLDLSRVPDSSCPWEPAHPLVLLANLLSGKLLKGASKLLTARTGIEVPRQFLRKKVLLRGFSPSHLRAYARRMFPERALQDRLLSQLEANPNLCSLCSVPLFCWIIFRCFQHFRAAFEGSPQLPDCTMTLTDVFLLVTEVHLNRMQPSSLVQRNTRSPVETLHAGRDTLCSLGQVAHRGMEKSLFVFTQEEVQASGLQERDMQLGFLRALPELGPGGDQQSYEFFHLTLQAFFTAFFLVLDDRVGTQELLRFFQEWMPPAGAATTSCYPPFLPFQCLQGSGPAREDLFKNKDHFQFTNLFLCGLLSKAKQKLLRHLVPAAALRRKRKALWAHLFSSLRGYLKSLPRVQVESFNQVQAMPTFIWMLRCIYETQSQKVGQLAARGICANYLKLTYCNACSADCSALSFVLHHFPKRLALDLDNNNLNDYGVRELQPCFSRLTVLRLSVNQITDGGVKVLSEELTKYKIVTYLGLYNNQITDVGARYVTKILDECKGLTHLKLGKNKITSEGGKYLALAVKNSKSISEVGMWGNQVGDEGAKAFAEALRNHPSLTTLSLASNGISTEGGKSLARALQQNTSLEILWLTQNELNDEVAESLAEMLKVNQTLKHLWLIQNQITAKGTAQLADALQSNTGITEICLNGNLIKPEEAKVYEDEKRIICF

HEK293 = experiment: cells; conditions: Homo sapiens;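 also: cells exposed to compound for 14 hours overnight before viability readout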
Tumor necrosis factor = Tumor necrosis factor (Homo sapiens, UniProt P01375); experiment: analog potency on TNFa NF-kB signaling – cell-based, revised, SAR follow-up (AID 2337); assay type: functional
Chain of Tumor necrosis factor (P01375 whole entry): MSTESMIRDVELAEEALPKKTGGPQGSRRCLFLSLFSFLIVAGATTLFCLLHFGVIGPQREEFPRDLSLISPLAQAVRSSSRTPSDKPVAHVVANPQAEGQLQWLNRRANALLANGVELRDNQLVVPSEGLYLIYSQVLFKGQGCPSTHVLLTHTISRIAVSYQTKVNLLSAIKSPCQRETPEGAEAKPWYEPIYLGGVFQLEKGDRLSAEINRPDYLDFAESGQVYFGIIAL

Coagulation factor XII = target: T4, Coagulation factor XII (Homo sapiens, UniProt P00748); assay type: functional;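 also: activated factor XIIa alpha cleaving a fluorogenic AMC peptide substrate; inhibitor potency from loss of enzyme activity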
T4 sequence (P00748 whole entry): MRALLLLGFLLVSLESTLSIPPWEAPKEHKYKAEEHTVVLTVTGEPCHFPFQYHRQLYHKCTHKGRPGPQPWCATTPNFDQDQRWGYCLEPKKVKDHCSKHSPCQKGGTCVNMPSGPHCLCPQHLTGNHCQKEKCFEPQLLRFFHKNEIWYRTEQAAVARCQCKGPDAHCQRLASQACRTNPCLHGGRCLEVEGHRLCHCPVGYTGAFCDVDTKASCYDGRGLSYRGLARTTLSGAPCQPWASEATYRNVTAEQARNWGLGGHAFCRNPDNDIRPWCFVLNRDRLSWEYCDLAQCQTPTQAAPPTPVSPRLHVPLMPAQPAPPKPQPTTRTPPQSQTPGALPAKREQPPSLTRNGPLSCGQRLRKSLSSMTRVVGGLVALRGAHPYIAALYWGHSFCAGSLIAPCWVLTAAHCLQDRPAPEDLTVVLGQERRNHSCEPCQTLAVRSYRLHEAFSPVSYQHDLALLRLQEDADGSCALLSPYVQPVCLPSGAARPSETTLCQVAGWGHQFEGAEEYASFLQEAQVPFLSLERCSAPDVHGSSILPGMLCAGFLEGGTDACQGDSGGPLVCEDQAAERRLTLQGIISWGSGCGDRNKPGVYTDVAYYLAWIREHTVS

Estrogen receptor = target: T5, Estrogen receptor (Homo sapiens, UniProt P03372);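 also: potency for inhibiting coactivator peptide recruitment to the receptor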
T5 sequence (P03372 whole entry): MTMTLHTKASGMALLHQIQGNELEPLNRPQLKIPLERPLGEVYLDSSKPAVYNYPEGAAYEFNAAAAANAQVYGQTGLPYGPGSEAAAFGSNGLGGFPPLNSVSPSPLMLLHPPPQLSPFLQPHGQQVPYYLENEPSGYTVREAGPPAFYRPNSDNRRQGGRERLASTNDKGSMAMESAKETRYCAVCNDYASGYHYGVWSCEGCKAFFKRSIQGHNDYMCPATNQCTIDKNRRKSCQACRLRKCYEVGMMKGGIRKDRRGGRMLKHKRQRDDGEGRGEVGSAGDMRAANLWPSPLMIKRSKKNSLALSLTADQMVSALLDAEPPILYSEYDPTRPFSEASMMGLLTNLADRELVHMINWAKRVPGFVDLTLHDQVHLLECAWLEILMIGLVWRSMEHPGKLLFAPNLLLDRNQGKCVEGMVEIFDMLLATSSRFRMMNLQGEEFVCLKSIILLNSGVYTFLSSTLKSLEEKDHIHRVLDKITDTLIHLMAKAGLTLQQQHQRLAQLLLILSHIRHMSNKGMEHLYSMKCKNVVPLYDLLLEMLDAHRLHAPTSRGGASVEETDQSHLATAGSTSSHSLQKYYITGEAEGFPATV

[6] = target: T6, Tyrosine-protein phosphatase non-receptor type 7 (Homo sapiens, UniProt P35236); experiment: redox-active compounds inhibiting HePTP phosphatase – biochemical, fluorescence, mechanism study (AID 2068); assay type: functional
T6 sequence (P35236 whole entry): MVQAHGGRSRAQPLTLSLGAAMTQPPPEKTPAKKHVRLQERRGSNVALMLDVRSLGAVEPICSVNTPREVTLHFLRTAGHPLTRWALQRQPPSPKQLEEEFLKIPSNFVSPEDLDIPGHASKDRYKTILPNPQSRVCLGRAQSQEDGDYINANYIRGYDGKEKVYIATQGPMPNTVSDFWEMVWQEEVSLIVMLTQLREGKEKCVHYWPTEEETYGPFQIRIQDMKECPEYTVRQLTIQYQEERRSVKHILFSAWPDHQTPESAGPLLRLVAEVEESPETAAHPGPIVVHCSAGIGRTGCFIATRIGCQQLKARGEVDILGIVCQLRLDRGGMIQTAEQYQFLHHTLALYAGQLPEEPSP

[7] = target: T7, Dual specificity protein phosphatase 6 (Rattus norvegicus, UniProt Q64346); assay type: functional;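 also: confirmatory in vitro dose-response testing of MKP-3 inhibition; recombinant His-tagged MKP-3 made in E. coli BL21 with OMFP substrate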
T7 sequence (Q64346 whole entry): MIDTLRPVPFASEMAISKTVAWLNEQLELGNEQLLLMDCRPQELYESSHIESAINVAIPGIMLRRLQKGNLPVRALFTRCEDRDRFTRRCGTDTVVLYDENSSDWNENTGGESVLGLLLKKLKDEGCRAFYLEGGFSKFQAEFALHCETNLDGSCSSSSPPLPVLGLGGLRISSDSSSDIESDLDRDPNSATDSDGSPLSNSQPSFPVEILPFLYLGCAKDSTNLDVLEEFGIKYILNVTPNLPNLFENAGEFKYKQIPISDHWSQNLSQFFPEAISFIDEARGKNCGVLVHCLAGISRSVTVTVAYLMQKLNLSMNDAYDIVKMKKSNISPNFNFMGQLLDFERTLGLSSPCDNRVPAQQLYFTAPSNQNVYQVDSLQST

Vero = experiment: cells; assay type: functional, cell-based; conditions: Chlorocebus sabaeus
Exodeoxyribonuclease V = Exodeoxyribonuclease V (Escherichia coli (strain K12), UniProt P04993+P07648+P08394); experiment: RecBCD inhibition via phage-restricted bacterial growth – absorbance, V66 E. coli, mutant T4 phage, counter-screen for AddAB inhibitor project, dose response (AID 492957); assay type: functional, cell-based, Escherichia coli str. K-12 substr. MG1655
Chain of Exodeoxyribonuclease V (P04993 whole entry): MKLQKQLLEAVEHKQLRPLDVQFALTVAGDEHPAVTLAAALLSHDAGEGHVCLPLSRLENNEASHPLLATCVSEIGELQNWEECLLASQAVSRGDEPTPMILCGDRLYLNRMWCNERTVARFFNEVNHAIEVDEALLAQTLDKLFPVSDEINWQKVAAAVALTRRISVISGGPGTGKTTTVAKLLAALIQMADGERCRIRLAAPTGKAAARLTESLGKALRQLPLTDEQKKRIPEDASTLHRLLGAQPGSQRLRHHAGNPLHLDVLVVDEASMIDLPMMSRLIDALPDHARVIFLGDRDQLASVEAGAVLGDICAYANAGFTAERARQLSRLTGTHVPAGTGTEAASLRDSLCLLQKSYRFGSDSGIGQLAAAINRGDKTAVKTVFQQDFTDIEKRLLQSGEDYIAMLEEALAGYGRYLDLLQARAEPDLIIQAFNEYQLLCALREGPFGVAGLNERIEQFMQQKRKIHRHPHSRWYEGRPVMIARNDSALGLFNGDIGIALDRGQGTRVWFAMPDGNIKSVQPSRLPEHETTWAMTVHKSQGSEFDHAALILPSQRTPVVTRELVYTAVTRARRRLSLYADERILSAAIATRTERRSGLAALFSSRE
Chain of Exodeoxyribonuclease V (P07648 whole entry): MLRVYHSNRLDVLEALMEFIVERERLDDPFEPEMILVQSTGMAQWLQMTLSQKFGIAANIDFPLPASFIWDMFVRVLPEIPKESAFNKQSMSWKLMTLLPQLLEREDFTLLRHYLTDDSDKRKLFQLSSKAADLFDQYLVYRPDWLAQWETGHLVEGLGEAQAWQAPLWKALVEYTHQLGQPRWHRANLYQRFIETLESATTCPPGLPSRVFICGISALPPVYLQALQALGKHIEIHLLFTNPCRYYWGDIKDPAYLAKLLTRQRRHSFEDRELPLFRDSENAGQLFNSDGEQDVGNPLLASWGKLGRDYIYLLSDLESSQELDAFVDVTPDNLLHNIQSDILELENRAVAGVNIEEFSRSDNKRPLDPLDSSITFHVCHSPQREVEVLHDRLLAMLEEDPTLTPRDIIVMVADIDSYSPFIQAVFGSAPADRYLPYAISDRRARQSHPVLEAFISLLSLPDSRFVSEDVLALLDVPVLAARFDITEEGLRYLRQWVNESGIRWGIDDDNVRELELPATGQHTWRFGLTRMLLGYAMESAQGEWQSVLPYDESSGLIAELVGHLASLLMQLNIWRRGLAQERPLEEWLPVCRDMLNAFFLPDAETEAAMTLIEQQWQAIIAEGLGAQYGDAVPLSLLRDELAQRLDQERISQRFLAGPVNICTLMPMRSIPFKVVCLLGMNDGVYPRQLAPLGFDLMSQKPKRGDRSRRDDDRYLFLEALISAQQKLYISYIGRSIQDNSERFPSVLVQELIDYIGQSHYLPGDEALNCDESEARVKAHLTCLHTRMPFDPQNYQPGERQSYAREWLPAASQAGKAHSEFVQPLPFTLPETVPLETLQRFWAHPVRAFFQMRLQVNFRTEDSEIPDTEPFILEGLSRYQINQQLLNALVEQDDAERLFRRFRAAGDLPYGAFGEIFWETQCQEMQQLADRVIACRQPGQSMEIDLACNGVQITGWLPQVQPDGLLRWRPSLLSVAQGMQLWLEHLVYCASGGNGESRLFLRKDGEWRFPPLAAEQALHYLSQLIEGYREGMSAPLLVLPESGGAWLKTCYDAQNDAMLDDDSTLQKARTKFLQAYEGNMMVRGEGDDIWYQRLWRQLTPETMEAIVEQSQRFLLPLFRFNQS
Chain of Exodeoxyribonuclease V (P08394 whole entry): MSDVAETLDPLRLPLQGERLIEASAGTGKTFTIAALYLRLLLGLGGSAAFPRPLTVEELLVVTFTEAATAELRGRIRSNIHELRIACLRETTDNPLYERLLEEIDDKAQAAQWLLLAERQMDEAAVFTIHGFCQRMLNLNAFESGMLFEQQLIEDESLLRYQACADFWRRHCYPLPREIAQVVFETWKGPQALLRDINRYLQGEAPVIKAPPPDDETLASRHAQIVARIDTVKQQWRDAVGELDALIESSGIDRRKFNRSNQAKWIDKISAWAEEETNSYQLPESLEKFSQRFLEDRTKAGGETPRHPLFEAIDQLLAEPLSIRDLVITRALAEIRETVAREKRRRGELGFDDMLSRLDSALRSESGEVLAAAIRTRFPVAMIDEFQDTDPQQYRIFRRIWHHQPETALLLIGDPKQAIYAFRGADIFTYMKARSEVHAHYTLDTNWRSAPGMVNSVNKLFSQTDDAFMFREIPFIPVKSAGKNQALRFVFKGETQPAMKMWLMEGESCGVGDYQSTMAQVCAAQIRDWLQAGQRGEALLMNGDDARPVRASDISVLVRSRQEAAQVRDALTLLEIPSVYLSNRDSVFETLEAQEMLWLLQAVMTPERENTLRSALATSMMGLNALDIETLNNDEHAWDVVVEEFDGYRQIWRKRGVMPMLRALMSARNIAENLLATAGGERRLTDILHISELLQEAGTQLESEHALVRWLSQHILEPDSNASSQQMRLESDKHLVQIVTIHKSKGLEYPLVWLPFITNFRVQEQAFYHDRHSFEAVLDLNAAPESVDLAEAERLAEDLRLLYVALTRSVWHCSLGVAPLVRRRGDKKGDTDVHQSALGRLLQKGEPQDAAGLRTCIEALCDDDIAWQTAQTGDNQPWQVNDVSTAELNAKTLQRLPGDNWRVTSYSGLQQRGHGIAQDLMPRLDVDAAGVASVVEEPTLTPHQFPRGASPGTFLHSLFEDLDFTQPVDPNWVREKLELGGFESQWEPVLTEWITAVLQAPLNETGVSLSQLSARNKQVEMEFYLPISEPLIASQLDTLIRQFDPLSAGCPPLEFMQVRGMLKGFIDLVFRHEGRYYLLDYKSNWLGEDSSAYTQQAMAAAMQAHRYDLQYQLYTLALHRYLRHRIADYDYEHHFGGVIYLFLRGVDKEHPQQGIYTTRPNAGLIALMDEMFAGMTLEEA

[8] = Counterscreen for AddAB inhibitors: absorbance-based bacterial cell-based high throughput dose response assay for inhibitors of bacterial viability. [Related pubchem assays (depositor defined):AID435030, AID449728, AID449731, AID488942, AID488955, AID488956]; assay type: functional
Streptococcus = experiment: GAS UMAA2166 growth inhibition – luminescence, BacTiterGlo, counter-screen for streptokinase expression inhibitor project, dose response (AID 1915); assay type: functional, organism-based;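 also: potency for reduction of bacterial viability or growth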
[9] = Luminescence Cell-Based Dose Retest to Confirm Inhibitors of Cancer Stem Cells. [Related pubchem assays (depositor defined):AID2717, AID2721]; assay type: functional; conditions: Homo sapiens
[10] = tested on: Streptococcus sp. 'group A'; experiment: Streptococcus pyogenes SK(-)GAS viability under kanamycin – luminescence, BacTiterGlo, confirmation, counter-screen for streptokinase expression inhibitor project, dose response (AID 1900); assay type: functional, organism-based
Streptokinase A = target: T8, Streptokinase A (Streptococcus pyogenes serotype M1, UniProt P10520); experiment: viability-normalized secreted streptokinase activity reduction – plasminogen activation absorbance, OD405, dose response (AID 1914); assay type: functional, Streptococcus pyogenes M1 GAS;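 also: secreted streptokinase activity via plasminogen activation per viability signal from cell pellet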
T8 sequence (P10520 whole entry): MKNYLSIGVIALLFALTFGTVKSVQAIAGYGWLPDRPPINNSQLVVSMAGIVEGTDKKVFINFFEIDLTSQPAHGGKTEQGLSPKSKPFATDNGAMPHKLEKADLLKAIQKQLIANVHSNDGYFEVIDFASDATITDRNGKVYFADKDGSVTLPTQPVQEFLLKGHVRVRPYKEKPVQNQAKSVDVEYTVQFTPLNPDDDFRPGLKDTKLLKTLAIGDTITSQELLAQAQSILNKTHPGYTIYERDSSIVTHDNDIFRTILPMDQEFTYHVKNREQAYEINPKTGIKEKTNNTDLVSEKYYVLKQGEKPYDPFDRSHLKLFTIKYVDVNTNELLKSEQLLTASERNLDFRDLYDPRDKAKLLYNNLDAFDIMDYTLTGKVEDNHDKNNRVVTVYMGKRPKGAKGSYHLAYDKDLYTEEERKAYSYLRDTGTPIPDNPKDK
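For AC50 in this document: cells exposed to compound for roughly 70 hours or longer before luminescence read.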

CN(CCNC(=O)CN1CCN(Cc2ccccc2Cl)C1=O)Cc1ccccc1
IC50 [1]: 15.9 µM (active)

COCc1ccc(CN2CCC(C(=O)Nc3cccc(-c4cccc(Cl)c4)c3)CC2)o1
IC50 (Nonstructural protein 1): > 100 µM (active)
IC50 [2]: 17.8 µM (active)
IC50 [3]: 2.01 µM (active)
IC50 [4]: > 100 µM (inactive)

Cc1ccc(-c2nc3ccccc3s2)cc1
IC50 [5]: > 20 µM (inactive)
IC50 (HEK293): > 20 µM (inactive)
IC50 (Tumor necrosis factor): > 20 µM (inactive)

Cc1ccc(-c2nnc3n2N=C(c2ccc(Br)cc2)CS3)cc1
IC50 (Coagulation factor XII): > 50 µM (inactive)
IC50 (Estrogen receptor): 42.3 µM (not active)

COc1cc(C(=S)NC2CCCC2)ccc1O
IC50 [6]: 2.58 µM (active)
IC50 [7]: > 100 µM (inactive)

C/C(=N/OCO/N=C(/C)c1ccc(F)cc1)c1ccc(F)cc1
IC50 (Vero): > 12.5 µM (active)

CCOc1ccc(NC(S)=NCc2nc3ccccc3[nH]2)cc1
IC50 (Exodeoxyribonuclease V): > 119 µM (inactive)
IC50 [8]: > 119 µM (inactive)

CCCCOc1ccc(Cc2cnc(N)nc2N)cc1
IC50 (Exodeoxyribonuclease V): 114 µM (inactive)
IC50 [8]: 85.2 µM (inactive)

S=C(NCCC(c1ccccc1)c1ccccc1)Nc1cccc(Cl)c1
EC50 (Streptococcus): 10.5 µM (active)
AC50 [9]: 2.27 µM (active)
EC50 [10]: 3.81 µM (active)
IC50 [2]: 22.9 µM (active)
EC50 (Streptokinase A): 15.3 µM (active)
IC50 [3]: 6.96 µM (active)
IC50 [4]: 57.7 µM (active)

COc1cc(COCC(O)CN2CCOCC2)cc(OC)c1OC (stereo unspecified)
IC50 (Coagulation factor XII): > 50 µM (inactive)

C/C(=N\N=C(N)N)c1ccc(Cl)c(Cl)c1
IC50 [1]: 13.8 µM (active)
